Results on 2 molecules are retold here after EP4567034A1 (Korea Institute of Science and Technology, priority 2022, dated 2024).

Experiment [1] has as its target T1, S1P1 receptor (Homo sapiens, UniProt P21453). Nature of the experiment: S1P1 β-arrestin recruitment assay in S1P1 overexpressing cell line (DiscoverX), luminescence. It is filed as cell-based. For orientation: Activated receptors often draw arrestin, which recruitment assays turn into a signal.
In experiment [2] the target is T1, S1P1 receptor. Description: S1P1 receptor internalization (endosome formation) assay in S1P1 overexpressing cell line (DiscoverX), luminescence. It is filed as cell-based.
The subject of experiment [3] is blood lymphocyte count. Nature of the experiment: Decrease in blood lymphocyte count in normal rats after oral administration. It is filed as in vivo, rat. The conditions noted are these: 10 mg/kg for the compounds, within 5 hours after drug administration, percentage based on count before administration. As for the experimental part: In order to confirm the effect of administration of the four compounds selected from Experimental Example 1, Compounds 13, 62, 64, and 66, on the decrease in the blood lymphocyte count in rodents in vivo, blood was collected before and after compound administration, and the decrease in the blood lymphocyte count over time was measured using an automatic blood counter, and the results are shown in FIG. 1.
Specifically, 5-week-old male rats (rat, wister, 160-180 g) were acclimated in a temperature- and humidity-controlled breeding room, and the four selected compounds were dissolved in 5% DMSO and 10% Kolliphor HS15 aqueous solution and orally administered at a dose of 10 mg/kg. Blood was collected from the tail vein with a syringe during inhalation anesthesia with 4% isoflurane and transferred to an EDTA-coated tube. The lymphocyte count was measured from the collected blood using an automatic blood counter. As a positive control group, rats administered with fingolimod, a known S1P1 receptor modulator, were used.
As in the positive control group, fingolimod-administered group, it was confirmed that the group administered with the compounds of the Examples within 5 hours after drug administration induced a decrease in the lymphocyte count by 50% or less.

The EC50 is the concentration that produces a half-maximal response. Higher therefore signals weaker potency.

T1 sequence (P21453 whole entry): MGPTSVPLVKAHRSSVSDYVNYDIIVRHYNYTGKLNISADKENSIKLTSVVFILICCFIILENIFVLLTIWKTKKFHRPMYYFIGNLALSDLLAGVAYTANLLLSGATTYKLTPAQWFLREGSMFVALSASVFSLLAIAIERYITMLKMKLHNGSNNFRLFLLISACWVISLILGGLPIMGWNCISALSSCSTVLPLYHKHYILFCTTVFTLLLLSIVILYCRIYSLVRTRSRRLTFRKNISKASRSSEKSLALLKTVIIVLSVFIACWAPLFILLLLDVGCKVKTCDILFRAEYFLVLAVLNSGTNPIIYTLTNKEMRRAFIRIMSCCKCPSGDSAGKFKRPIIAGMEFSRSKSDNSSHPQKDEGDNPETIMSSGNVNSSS

With `COC(=O)C1CN(Cc2ccc(-c3ncc(-c4ccc(OC(C)C)c(Cl)c4)[se]3)cc2)C1` [Compound 41, Methyl 1-(4-(5-(3-chloro-4-isopropoxyphenyl)-1,3-selenazole-2-yl)benzyl)azetidine-3-carboxylate], the values for the EC50 in experiment [1] and in experiment [2] were 0.9 nM and 9.52 nM, respectively. As for `CCCCCCCCc1ccc(CCC(N)(CO)CO)cc1` [fingolimod], the “decrease in the lymphocyte count” value in experiment [3] is recorded as not above 50%.
